Patent US7119049B2, “Oxathiinecarboxamides” (Bayer Cropscience AG, priority 2002, dated 2006)
Like-named read-outs stand apart in the source and are kept apart here.

Legend:
[1] = system: Podosphaera leucotricha; test: Podosphaera Test (Apple)/protective; format: in vivo; conditions: 240 h, read-out: Efficacy in %
Experimental: Podosphaera Test (Apple)/Protective
• Solvents: 24.5 Parts by weight of acetone 24.5 Parts by weight of dimethylacetamide • Emulsifier: 1.0 Part by weight of alkylaryl polyglycol ether
(§1) To produce a suitable preparation of active compound, 1 part by weight of active compound is mixed with the stated amount of solvent and emulsifier, and the concentrate is diluted with water to the desired concentration.
To test for protective activity, young plants are sprayed with the preparation of active compound at the stated application rate. After the spray coating has dried on, the plants are inoculated with an aqueous spore suspension of the apple mildew pathogen Podosphaera leucotricha. The plants are then placed in a greenhouse at about 23° C. and a relative atmospheric humidity of about 70%.
(§2) Evaluation is carried out 10 days after the inoculation. 0% means an efficacy which corresponds to that of the control, whereas an efficacy of 100% means that no infection is observed.

[2] = system: Alternaria solani; test: Alternaria Test (Tomato)/protective; format: in vivo; conditions: 48 h, read-out: Efficacy in %
Experimental: (§3) To produce a suitable preparation of active compound, 1 part by weight of active compound is mixed with the stated amounts of solvent and emulsifier, and the concentrate is diluted with water to the desired concentration.
To test for protective activity, young tomato plants are sprayed with the preparation of active compound at the stated application rate. 1 day after the treatment, the plants are inoculated with an aqueous spore suspension of Alternaria solani. The plants are then placed in an incubation cabin at about 20° C. and 100% relative atmospheric humidity.
Evaluation is carried out 2 days after the inoculation. 0% means an efficacy which corresponds to that of the control, whereas an efficacy of 100% means that no infection is observed.

[3] = system: Venturia inaequalis; test: Venturia Test (Apple)/protective; format: in vivo; conditions: 240 h, read-out: Efficacy in %
Experimental: as §3
To test for protective activity, young plants are sprayed with the preparation of active compound at the stated application rate. After the spray coating has dried on, the plants are inoculated with an aqueous conidia suspension of the apple scab pathogen Venturia inaequalis and then remain in an incubation cabin at about 20° C. and 100% relative atmospheric humidity for 1 day.
The plants are then placed in a greenhouse at about 21° C. and a relative atmospheric humidity of about 90%.
as §2

[4] = logP determination by HPLC (reversed-phase C 18), acidic range; format: physicochemical; conditions: pH 2.3, HPLC reversed-phase C 18, 43° C., 0.1% aqueous phosphoric acid/acetonitrile
Experimental: The logP values given in the Preparation Examples were determined in accordance with EEC Directive 79/831 Annex V.A8 by HPLC (High Performance Liquid Chromatography) using a reversed-phase column (C 18). Temperature: 43° C.
Mobile phases for the determination in the acidic range: 0.1% aqueous phosphoric acid, acetonitrile; linear gradients from 10% acetonitrile to 90% acetonitrile.
Calibration was carried out using unbranched alkan-2-ones (having 3 to 16 carbon atoms) with known logP values (determination of the logP values by the retention times using linear interpolation between two successive alkanones).

[5] = system: Puccinia recondita; test: Puccinia Test (Wheat)/protective; format: in vivo; conditions: protective, 500 g/ha, evaluation 10 days after inoculation
Experimental: as §3
(§4) To test for protective activity, young plants are sprayed with the preparation of active compound at the stated application rate. After the spray coating has dried on, the plants are sprayed with a conidia suspension of Puccinia recondita. The plants remain in an incubation cabin at 20° C. and 100% relative atmospheric humidity for 48 hours.
The plants are then placed in a greenhouse at a temperature of about 20° C. and a relative atmospheric humidity of about 80% to promote the development of rust pustules.
as §2

[6] = system: Pyrenophora teres; test: Pyrenophora teres Test (Barley)/protective; format: in vivo; conditions: protective, 500 g/ha, evaluation 7 days after inoculation
Experimental: as §1
as §4, with “Pyrenophora teres.” for “Puccinia recondita.”
The plants are then placed in a greenhouse at temperature of about 20° C. and a relative atmospheric humidity of about 80%.
Evaluation is carried out 7 days after the inoculation. 0% means an efficacy which corresponds to that of the control, whereas an efficacy of 100% means that no infection is observed.

chromatographic logP ([4]; reversed-phase C18 HPLC column) | Structure (SMILES) | pest or weed control at 100 g/ha ([1]; apple, protective, application rate 100 g/ha, evaluation 10 days after inoculation) [%] | pest or weed control at 100 g/ha ([2]; tomato, protective, 100 g/ha, evaluation 2 days after inoculation) [%] | pest or weed control at 100 g/ha ([3]; apple, protective, 100 g/ha, evaluation 10 days after inoculation) [%] | pest or weed control at 100 g/ha [1] [%] | pest or weed control at 100 g/ha [2] [%] | Efficacy in % [5] [%] | pest or weed control at 100 g/ha [3] [%] | chromatographic logP [4] | Efficacy in % [6] [%]
3.61 | CC1=C(C(=O)Nc2ccccc2-c2ccc(Cl)cc2F)SCCO1 [Example 1, N-(4′-chloro-2′-fluoro-1,1′-biphenyl-2-yl)-2-methyl-5,6-dihydro-1,4-oxathiine-3-carboxamide] | 99 | 94 | 100 |  |  |  |  |  | 
 | CC1=C(C(=O)Nc2ccccc2-c2ccc(Cl)c(Cl)c2)SCCO1 [Example 6] |  |  |  | 100 | 100 | 100 | 100 | 4.02 | 
 | CC1=C(C(=O)Nc2ccccc2-c2ccc(Cl)cc2Cl)SCCO1 [Example 7] |  |  |  | 100 | 98 |  | 100 |  | 
 | CC1=C(C(=O)Nc2ccccc2-c2ccc(Cl)cc2C)SCCO1 [Example 8] |  |  |  | 96 | 94 |  | 99 | 4.26 | 
 | CC1=C(C(=O)Nc2ccccc2-c2ccc(Cl)c(F)c2)SCCO1 [Example 9] |  |  |  | 100 | 100 | 100 | 100 | 3.67 | 95
 | CC1=C(C(=O)Nc2ccccc2-c2ccc(F)c(Cl)c2)SCCO1 [Example 10] |  |  |  | 93 | 94 |  | 100 | 3.7 | 
 | CC1=C(C(=O)Nc2ccccc2-c2ccc(F)c(F)c2)SCCO1 [Example 12] |  |  |  |  | 95 |  | 100 | 3.38 | 
 | CC1=C(C(=O)Nc2ccccc2-c2ccc(Cl)c(C(F)(F)F)c2)SCCO1 [Example 13] |  |  |  |  | 94 |  | 99 | 4.03 | 
 | CC1=C(C(=O)Nc2ccccc2-c2ccc(Cl)c(C)c2)SCCO1 [Example 15] |  |  |  | 98 | 96 |  | 100 | 4.17 | 
 | CC1=C(C(=O)Nc2c(F)cccc2-c2ccc(Cl)c(Cl)c2)SCCO1 [Example 16] |  |  |  | 90 | 95 |  | 100 | 3.53 | 
 | CC1=C(C(=O)Nc2ccccc2-c2ccc(Cl)cc2)SCCO1 [Example 17] |  |  |  |  | 93 |  | 93 | 3.69 | 100
 | CC1=C(C(=O)Nc2ccccc2-c2ccc(C#N)cc2)SCCO1 [Example 19] |  |  |  |  |  |  |  | 2.74 | 93
